Data reported in US20240327463A1, “ANTIBACTERIAL PRODUCTS” (priority 2017, published 2024).
Values after ≈ are worked out from the molar mass of the structure shown. Bridge positions count the residues as written; N and C are the ends. Square brackets hold non-standard residues; d marks the D form. Peptide text beside a SMILES is read from it. * marks the point of attachment. ξ: configuration not given here. dNMeF = CN[C@H](Cc1ccccc1)C(=O)O; Ile(3ξ) = CCC(C)[C@H](N)C(=O)O; X2 = O=C(CCCCCN1CNC(=S)NC1)*; X3 = O=C(CCCN1CNC(=S)NC1)*; X4 = O=C(CN1CNC(=S)NC1)*

What was measured:
[1] = test system: S. aureus ATCC 25923; type: cell-based, Staphylococcus aureus
Description: (§1) Bacteria were grown on Mueller Hinton broth (oxoid). All incubations were at 37° C. Dilutions were carried out using Mueller Hinton. […] This process was repeated up to well 11. […] This was repeated three times. […] Results are tabulated in the Examples.

[2] = test system: MRSA 1003; type: cell-based, Staphylococcus aureus
Description: as §1

[3] = test system: VRE 1001; type: cell-based, Enterococcus faecalis
Description: as §1

[4] = test system: VRE 1002; type: cell-based, Enterococcus faecalis
Description: as §1

[5] = test system: VRE 1008; type: cell-based, Enterococcus faecalis
Description: as §1

[6] = test system: VRE 1004; type: cell-based, Enterococcus faecalis
Description: as §1

[7] = test system: Staphylococcus aureus ATCC 29213; assay: microbe, parasite or virus in culture; conditions: ATCC 29213
Description: (§2) For MIC testing all peptides were dissolved in DMSO (according to the method of L. L. Ling, et al., Nature 2015, 517, 455-459). Bacteria were grown on Mueller Hinton broth (oxoid). All incubations were at 37° C. Dilutions were carried out using Mueller Hinton. 100 μl of autoclaved Mueller Hinton broth was added to wells 2-12 on a 96-well plate. 200 μl of the peptide was added to well one at a concentration of 512 μg/ml. 100 μl of peptide in well one was taken up and pipetted into well two. The mixture was then mixed via pipetting before 100 μl was taken up and pipetted into well three. This process was repeated up to well 11. […] This was repeated three times. The 96-well plates were then incubated for 24 hours. The MIC was determined to be the lowest concentration at which there was no growth visible.

[8] = test system: MRSA ATCC 700699; assay: microbe, parasite or virus in culture; conditions: ATCC 700699
Description: as §2

[9] = test system: VRE ATCC 700802; assay: microbe, parasite or virus in culture; conditions: ATCC 700802
Description: as §2

[10] = test system: VRE ATCC 29212; assay: microbe, parasite or virus in culture; conditions: ATCC 29212
Description: as §2

[11] = test system: MRSA DM21455 (eye); assay: microbe, parasite or virus in culture; conditions: DM21455 (eye)
Description: as §2

[12] = test system: MRSA DR 42412 (sputum); assay: microbe, parasite or virus in culture; conditions: DR 42412 (sputum)
Description: as §2

[13] = test system: Staphylococcus saprophyticus ATCC 49453; type: cell-based; conditions: ATCC 49453
Description: as §1

[14] = test system: Staphylococcus saprophyticus ATCC 49907; type: cell-based; conditions: ATCC 49907
Description: as §1

[15] = test system: SA4299; type: cell-based; conditions: Table 11
Description: as §1

[16] = test system: Bacillus Cereus ATCC 11788; type: cell-based
Description: as §1

[17] = test system: SE12228; type: cell-based
Description: as §1

[18] = test system: Bacillus Subtilis ATCC 6633; type: cell-based
Description: as §1

[19] = test system: Staphylococcus saprophyticus ATCC 15305; type: cell-based; conditions: ATCC 15305
Description: as §1

[20] = test system: Staphylococcus saprophyticus ATCC BAA 750; type: cell-based; conditions: ATCC BAA 750
Description: as §1

[21] = test system: MRSA ATCC 33591; conditions: for MIC (MRSA): ATCC 33591
Outline: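 Readout: lowest peptide concentration without visible bacterial growth after 24 h at 37° C. The dilution series was made twofold in Mueller Hinton medium, beginning at 512 μg/ml, from DMSO-dissolved material.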

Row | SMILES | MIC against S. aureus ATCC 25923 [1] | MIC [2] | MIC [3] | MIC [4] | MIC [5] | MIC [6] | MIC [7] | MIC [8] | MIC [9] | MIC [10] | MIC [11] | MIC [12] | MIC [13] | MIC [14] | MIC [15] | MIC [16] | MIC [17] | MIC [18] | MIC [19] | MIC [20] | further results
1 | CC[C@@H](C)[C@@H](NC(=O)[C@@H](CCC(N)=O)NC(=O)[C@H](CO)NC(=O)[C@@H](NC(=O)[C@@H](Cc1ccccc1)NC)[C@@H](C)CC)C(=O)N[C@H](C(=O)N[C@@H](CO)C(=O)N[C@H]1C(=O)N[C@@H](C)C(=O)N[C@@H](CCCCNC(=O)CCCN2CNC(=S)NC2)C(=O)N[C@@H]([C@@H](C)CC)C(=O)O[C@H]1C)[C@@H](C)CC [Compound 23, GABA-thiourea-Lys10-teixobactin] (H-[dNMeF]IS[dQ][dI]IS[dT]AK(X3)I; ester 8-C) | 2 µg/mL (≈ 1.43 µM) | – | – | – | – | – | – | – | – | – | – | – | – | – | – | – | – | – | – | – | –
2 | CC[C@@H](C)[C@@H](NC(=O)[C@@H](CCC(N)=O)NC(=O)[C@H](CO)NC(=O)[C@@H](NC(=O)[C@@H](Cc1ccccc1)NC)[C@@H](C)CC)C(=O)N[C@H](C(=O)N[C@@H](CO)C(=O)N[C@H]1C(=O)N[C@@H](CCCNC(=N)N)C(=O)N[C@@H](CC(C)C)C(=O)N[C@@H]([C@@H](C)CC)C(=O)O[C@H]1C)[C@@H](C)CC [Compound 27, Arg9-Leu10-teixobactin] (H-[dNMeF]IS[dQ][dI]IS[dT]RLI; ester 8-C) | – | 0.25 µg/mL (≈ 0.194 µM) | 0.5 µg/mL (≈ 0.389 µM) | 1 µg/mL (≈ 0.777 µM) | 0.25 µg/mL (≈ 0.194 µM) | 0.25 µg/mL (≈ 0.194 µM) | 0.5 µg/mL (≈ 0.389 µM) | 0.5 µg/mL (≈ 0.389 µM) | 0.5 µg/mL (≈ 0.389 µM) | 1 µg/mL (≈ 0.777 µM) | 0.25 µg/mL (≈ 0.194 µM) | <0.0625 µg/mL | <0.0625 µg/mL | <0.0625 µg/mL | 0.25 µg/mL (≈ 0.194 µM) | 0.25 µg/mL (≈ 0.194 µM) | <0.0625 µg/mL | <0.0625 µg/mL | <0.0625 µg/mL | <0.0625 µg/mL | MIC (MRSA) [21]: 0.125 µg/mL (≈ 0.0972 µM)
3 | CC[C@@H](C)[C@@H](NC(=O)[C@@H](CCCNC(=N)N)NC(=O)[C@H](CCCNC(=N)N)NC(=O)[C@@H](NC(=O)[C@@H](Cc1ccccc1)NC)[C@@H](C)CC)C(=O)N[C@H](C(=O)N[C@@H](CO)C(=O)N[C@H]1C(=O)N[C@@H](C)C(=O)N[C@@H](CC(C)C)C(=O)N[C@@H]([C@@H](C)CC)C(=O)O[C@H]1C)[C@@H](C)CC [Compound 28, Arg3-D-Arg4-Leu10-teixobactin] (H-[dNMeF]IR[dR][dI]IS[dT]ALI; ester 8-C) | – | 1 µg/mL (≈ 0.77 µM) | 1 µg/mL (≈ 0.77 µM) | 1 µg/mL (≈ 0.77 µM) | 0.5 µg/mL (≈ 0.385 µM) | 0.5 µg/mL (≈ 0.385 µM) | 0.25 µg/mL (≈ 0.193 µM) | 0.5 µg/mL (≈ 0.385 µM) | 2 µg/mL (≈ 1.54 µM) | 1 µg/mL (≈ 0.77 µM) | 0.5 µg/mL (≈ 0.385 µM) | 0.25 µg/mL (≈ 0.193 µM) | <0.0625 µg/mL | <0.0625 µg/mL | 0.25 µg/mL (≈ 0.193 µM) | 1 µg/mL (≈ 0.77 µM) | <0.0625 µg/mL | <0.0625 µg/mL | <0.0625 µg/mL | <0.0625 µg/mL | MIC against MRSA ATCC 33591 [21]: 0.25 µg/mL (≈ 0.193 µM)
4 | CC[C@@H](C)[C@@H](NC(=O)[C@@H](CCC(N)=O)NC(=O)[C@H](CO)NC(=O)[C@@H](NC(=O)[C@@H](Cc1ccccc1)NC)[C@@H](C)CC)C(=O)N[C@H](C(=O)N[C@@H](CO)C(=O)N[C@H]1C(=O)N[C@@H](C)C(=O)N[C@@H](CCCCNC(=O)CN2CNC(=S)NC2)C(=O)N[C@@H]([C@@H](C)CC)C(=O)O[C@H]1C)[C@@H](C)CC [Compound 22, Gly-thiourea-Lys10-teixobactin] (H-[dNMeF]IS[dQ][dI]IS[dT]AK(X4)I; ester 8-C) | 2 µg/mL (≈ 1.46 µM) | – | – | – | – | – | – | – | – | – | – | – | – | – | – | – | – | – | – | – | –
5 | CC[C@@H](C)[C@@H](NC(=O)[C@@H](CCCNC(=N)N)NC(=O)[C@H](CO)NC(=O)[C@@H](NC(=O)[C@@H](Cc1ccccc1)NC)[C@@H](C)CC)C(=O)N[C@H](C(=O)N[C@@H](CO)C(=O)N[C@H]1C(=O)N[C@@H](CCCNC(=N)N)C(=O)N[C@@H](CC(C)C)C(=O)N[C@@H]([C@@H](C)CC)C(=O)O[C@H]1C)[C@@H](C)CC [Compound 30, D-Arg4-Arg9-Leu10-teixobactin] (H-[dNMeF]IS[dR][dI]IS[dT]RLI; ester 8-C) | – | 0.5 µg/mL (≈ 0.38 µM) | 1 µg/mL (≈ 0.761 µM) | 1 µg/mL (≈ 0.761 µM) | 1 µg/mL (≈ 0.761 µM) | 1 µg/mL (≈ 0.761 µM) | 1 µg/mL (≈ 0.761 µM) | 1 µg/mL (≈ 0.761 µM) | 1 µg/mL (≈ 0.761 µM) | 1 µg/mL (≈ 0.761 µM) | 1 µg/mL (≈ 0.761 µM) | 1 µg/mL (≈ 0.761 µM) | <0.0625 µg/mL | <0.0625 µg/mL | 0.5 µg/mL (≈ 0.38 µM) | 1 µg/mL (≈ 0.761 µM) | <0.0625 µg/mL | <0.0625 µg/mL | <0.0625 µg/mL | <0.0625 µg/mL | MIC against MRSA ATCC 33591 [21]: 1 µg/mL (≈ 0.761 µM)
6 | CCC(C)[C@@H]1NC(=O)[C@H](CCCNC(=N)N)NC(=O)[C@H](NC(=O)[C@H](CO)NC(=O)[C@@H](NC(=O)[C@H](NC(=O)[C@@H](CCC(N)=O)NC(=O)[C@H](CO)NC(=O)[C@@H](NC(=O)[C@@H](Cc2ccccc2)NC)[C@@H](C)CC)[C@H](C)CC)[C@@H](C)CC)[C@H](C)OC(=O)[C@H]([C@@H](C)CC)NC1=O (some centres unmarked) [Compound 34, Arg9-Ile10-teixobactin] (H-[dNMeF]IS[dQ][dI]IS[dT]R[Ile(3ξ)]I; ester 8-C) | – | 0.5 µg/mL (≈ 0.389 µM) | 1 µg/mL (≈ 0.777 µM) | 1 µg/mL (≈ 0.777 µM) | 1 µg/mL (≈ 0.777 µM) | 1 µg/mL (≈ 0.777 µM) | 1 µg/mL (≈ 0.777 µM) | 1 µg/mL (≈ 0.777 µM) | 1 µg/mL (≈ 0.777 µM) | 1 µg/mL (≈ 0.777 µM) | 0.5 µg/mL (≈ 0.389 µM) | 0.125 µg/mL (≈ 0.0972 µM) | <0.0625 µg/mL | <0.0625 µg/mL | 1 µg/mL (≈ 0.777 µM) | 0.5 µg/mL (≈ 0.389 µM) | <0.0625 µg/mL | 0.125 µg/mL (≈ 0.0972 µM) | <0.0625 µg/mL | <0.0625 µg/mL | MIC (MRSA) [21]: 0.25 µg/mL (≈ 0.194 µM)
7 | CC[C@@H](C)[C@@H](NC(=O)[C@@H](CCC(N)=O)NC(=O)[C@H](CO)NC(=O)[C@@H](NC(=O)[C@@H](Cc1ccccc1)NC)[C@@H](C)CC)C(=O)N[C@H](C(=O)N[C@@H](CO)C(=O)N[C@H]1C(=O)N[C@@H](C)C(=O)N[C@@H](CCCCNC(=O)CCCCCN2CNC(=S)NC2)C(=O)N[C@@H]([C@@H](C)CC)C(=O)O[C@H]1C)[C@@H](C)CC [Compound 24, Ahx-thiourea-Lys10-teixobactin] (H-[dNMeF]IS[dQ][dI]IS[dT]AK(X2)I; ester 8-C) | 2 µg/mL (≈ 1.4 µM) | – | – | – | – | – | – | – | – | – | – | – | – | – | – | – | – | – | – | – | –
